Read-outs that look alike come from different tables or passages of the source.
What was measured:
DDB1 [1] = target: T1, DDB1 (Homo sapiens, UniProt Q16531); test: SPR; format: binding; conditions: read-out: estimated KD; biotinylated protein immobilised; pH […] °C, […] DMSO
DDB1 [2] = target: T1, DDB1; test: SPR; format: binding; conditions: biotinylated protein immobilised; pH […] °C, […] DMSO; site at W1047, Y1114

T1 sequence (Q16531 2-1140): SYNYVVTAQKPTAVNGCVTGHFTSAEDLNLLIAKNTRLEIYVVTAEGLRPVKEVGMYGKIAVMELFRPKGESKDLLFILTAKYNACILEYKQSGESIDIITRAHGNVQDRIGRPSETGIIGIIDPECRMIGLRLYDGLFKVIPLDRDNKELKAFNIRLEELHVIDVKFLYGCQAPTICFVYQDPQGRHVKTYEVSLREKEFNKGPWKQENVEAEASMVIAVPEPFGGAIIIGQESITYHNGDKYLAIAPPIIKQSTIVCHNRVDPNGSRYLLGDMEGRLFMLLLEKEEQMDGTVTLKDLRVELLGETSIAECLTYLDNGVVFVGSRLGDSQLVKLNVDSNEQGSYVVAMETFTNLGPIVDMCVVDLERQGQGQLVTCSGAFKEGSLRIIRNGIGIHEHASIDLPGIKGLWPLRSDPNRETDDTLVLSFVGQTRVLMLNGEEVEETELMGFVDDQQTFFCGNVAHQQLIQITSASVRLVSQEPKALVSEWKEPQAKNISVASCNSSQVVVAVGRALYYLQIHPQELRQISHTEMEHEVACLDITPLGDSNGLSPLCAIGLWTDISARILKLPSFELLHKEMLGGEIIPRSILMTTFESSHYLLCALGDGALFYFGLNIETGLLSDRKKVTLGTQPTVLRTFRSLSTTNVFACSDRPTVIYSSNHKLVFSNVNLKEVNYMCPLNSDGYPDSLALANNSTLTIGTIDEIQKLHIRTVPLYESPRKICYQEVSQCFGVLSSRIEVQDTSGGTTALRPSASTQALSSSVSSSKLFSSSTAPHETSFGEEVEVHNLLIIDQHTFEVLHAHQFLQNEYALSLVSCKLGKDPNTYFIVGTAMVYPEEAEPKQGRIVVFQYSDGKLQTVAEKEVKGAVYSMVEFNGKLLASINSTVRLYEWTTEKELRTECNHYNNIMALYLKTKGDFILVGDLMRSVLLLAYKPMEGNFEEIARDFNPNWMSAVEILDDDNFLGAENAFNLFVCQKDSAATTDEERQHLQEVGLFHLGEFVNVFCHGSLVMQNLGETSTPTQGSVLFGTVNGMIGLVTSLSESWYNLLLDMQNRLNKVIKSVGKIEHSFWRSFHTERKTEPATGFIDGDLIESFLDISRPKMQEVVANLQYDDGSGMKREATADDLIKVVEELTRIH

Row | SMILES | Kd (DDB1 [1]) [nM] | Kd (DDB1 [2]) [nM]
1 | CCOc1cccc([C@H]2CC(=O)Nc3c2c(C)nn3-c2ccc3nncn3n2)c1 [(R)-XS381952] | > 73000 | –
2 | CCOc1cccc([C@@H]2CC(=O)Nc3c2c(C)nn3-c2ccc3nncn3n2)c1 [(S)-XS381952] | – | 2000

Reference: publication PMC11785093 (bioRxiv, 2025)
